Experimental findings from patent US10030027B2, “Soluble guanylate cyclase stimulators” (MERCK SHARP & DOHME CORP., priority 2015, dated 2018) are described below.

Molecules are shown by their SMILES. Read-outs that look alike come from different tables or passages of the source.

Experiment [1] concerns the target human recombinant sGC enzyme (Homo sapiens (Human), UniProt Q02108+Q02153). Kind of experiment: Size Exclusion Chromatography (SEC) competition binding assay using [3H] Ex-77B as the radioligand. As to conditions: [3H] Ex-77B radioligand, 24 hours at 37° C. The gist of the method: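 Recombinant human sGC binding measured by competition against tritiated Ex-77B radioligand, with non-specific binding defined by 1 μM unlabeled Ex-77B.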
(SEC sorts molecules by how far they enter the pores of the column.)

Experiment [2] has as its system Spontaneously hypertensive rats (SHR). Kind of experiment: Acute efficacy in spontaneously hypertensive rats (SHR). It is filed as in vivo, rat. As to conditions: Dose P.O. 3 mpk. From the text: Acute Efficacy in Spontaneously Hypertensive Rats (SHR)
Spontaneously hypertensive rats (SHR, male, Charles River) were implanted with DSI TA11PA-C40 telemetry device (Data Sciences, Inc., St. Paul, Minn.) under isoflurane or ketamine/metomidine anesthesia. The telemetry unit catheter was inserted into the descending aorta via the femoral artery and the telemetry device was implanted subcutaneously in the left flank area. Animals were allowed to recover from surgery for 14 days before the start of any studies. Blood pressure, heart rate, and activity signals from conscious, freely moving rats were recorded continuously for 30 seconds every 10 minutes. On the day prior to administration of compound, a single oral dose of vehicle (10% transcutol/20% Cremophor/70% water) was administered to all animals to establish baseline control data. The blood pressure lowering efficacy of compound (PO) or vehicle was evaluated following a single oral gavage. Data were collected as hourly averages, and changes in blood pressure were calculated by subtracting control baseline data on an hourly basis. Animals were maintained on normal diet with a 12 hour light-dark cycle.
Maximum peak decreases of systolic blood pressure (SBP) in SHR at a particular P.O. dose (mpk milligrams per kilogram) for the following Example compounds are provided.

The target in experiment [3] is sGC α1/β1 heterodimer (Homo sapiens (Human), UniProt Q02108+Q02153). Kind of experiment: Cell-based sGC functional assay (cyclic GMP assay for sGC activator: CASA assay). Details: % Activation: concentration or dose not given beside the values. As to conditions: CHO-K1/sGC cells; for EC50: inflection point, 4P fit, read-out: IP; for Emax: read-out: % Activation. The gist of the method: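 CHO-K1 cells stably expressing sGC α1/β1 were pre-incubated with or without 1 μM DETA-NO (30 min, 25 °C), then exposed to compounds for 1 hr at 37 °C with 0.5 mM IBMX. Intracellular cGMP was read by HTRF and expressed as a percentage of a reference heme-dependent activator's maximum.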

[4] abbreviates: activity expressed as percentage of compound A (standard).
Setting [5] is: CHO-K1, activity expressed as percentage of compound A (standard).

In general, Ki refers to the dissociation constant of the complex between target and ligand, obtained from inhibition or displacement. With `CC1CCC(Cn2nc(-c3nc(N)c4c(n3)NC(=O)[C@@]4(C)c3ccc(CCC(=O)O)cc3)c3ccc(Cl)cc32)CC1` (single isomer, unassigned) [Example 5BA], in experiment [1], the Ki was 0.162 nM. In addition, the “Category: maximum peak decrease of systolic blood pressure (SBP) in SHR” value (“Category: maximum peak decrease” below) in experiment [2] was “B (decrease in SBP in SHRs 25-40 mmHg)”. For the same compound, the “% Activation” value in experiment [3] (setting [4]) came out at 76%. Further, the EC50 in experiment [3] came out at 132 nM.
With `C[C@@]1(c2ccc(CCC(=O)O)cc2)C(=O)Nc2nc(-c3nn(CC45CC6CC(CC(C6)C4)C5)c4cc(Cl)ccc34)nc(N)c21` [Example 70B, (S)-3-(4-{2-[1-(adamantan-1-ylmethyl)-6-chloro-1H-indazol-3-yl]-4-amino-5-methyl-6-oxo-6,7-dihydro-5H-pyrrolo[2,3-d]pyrimidin-5-yl}phenyl)propanoic acid], the “Category: maximum peak decrease” value in experiment [2] is recorded as “A (decrease in SBP in SHRs 5-25 mmHg)”. In addition, in experiment [3] (setting [5]), the Emax is 120%. Moreover, the EC50 in experiment [3] was found to be 649 nM.
As to `C[C@@]1(c2ccc(CCC(=O)O)cc2)C(=O)Nc2nc(-c3nn(Cc4ccccc4F)c4ccccc34)nc(N)c21` [Example 76B, (S)-3-(4-{4-Amino-2-[1-(2-fluorobenzyl)-1H-indazol-3-yl]-5-methyl-6-oxo-6,7-dihydro-5H-pyrrolo[2,3-d]pyrimidin-5-yl}phenyl)propanoic acid], the “Category: maximum peak decrease” value in experiment [2] is “B (decrease in SBP in SHRs 25-40 mmHg)”.
As to `CC(C)(Cc1csc([C@]2(C)C(=O)Nc3nc(-c4nn(Cc5ccccc5F)c5ncccc45)nc(N)c32)n1)c1nn[nH]n1` [Example 241A, (S)-4-amino-2-[1-(2-fluoro-benzyl)-1H-pyrazolo[3,4-b]pyridin-3-yl]-5-methyl-5-{4-[2-methyl-2-(2H-tetrazol-5-yl)propyl]-1,3-thiazol-2-yl}-5,7-dihydro-6H-pyrrolo[2,3-d] pyrimidin-6-one], the inhibition constant (Ki) in experiment [1] amounted to 0.121 nM. Moreover, the Emax in experiment [3] (setting [5]) turned out to be 94.8%. Also, in experiment [3], the EC50 was determined as 403 nM.
For the compound `C[C@@]1(c2ccc(CCc3nn[nH]n3)cc2)C(=O)Nc2nc(-c3nn(Cc4ccccc4F)c4ccccc34)nc(N)c21` [Example 242B, (S)-4-amino-2-[1-(2-fluoro-benzyl)-1H-indazol-3-yl]-5-methyl-5-{4-[2-(2H-tetrazol-5-yl)ethyl]phenyl}-5,7-dihydro-6H-pyrrolo[2,3-d] pyrimidin-6-one], the Ki in experiment [1] was found to be 1.11 nM. In experiment [3] (setting [5]), the Emax was 107%. Moreover, in experiment [3], the EC50 amounted to 3100 nM.
For `CC1(c2cc(-c3nn[nH]n3)ccn2)C(=O)Nc2nc(-c3nn(Cc4ccccc4F)c4cc(Cl)ccc34)nc(N)c21` (centres unmarked) [Example 243A, 5-[4-(2H-tetrazol-5-yl)pyridin-2-yl]-4-amino-2-[6-chloro-1-(2-fluorobenzyl)-1H-indazol-3-yl]-5-methyl-5,7-dihydro-6H-pyrrolo[2,3-d] pyrimidin-6-one] the same measures were 0.062 nM, 101% and 3600 nM.
Take `CC1(c2ccc(Cc3nn[nH]n3)cc2)C(=O)Nc2nc(-c3nn(Cc4ccccc4F)c4cc(Cl)ccc34)nc(N)c21` (centres unmarked) [Example 244A, 5-{4-[(2H-tetrazol-5-yl)methyl]phenyl}-4-amino-2-[6-chloro-2-(2-fluorobenzyl)-1H-indazol-3-yl]-5-methyl-5,7-dihydro-6H-pyrrolo[2,3-d] pyrimidin-6-one]: in experiment [1], the inhibition constant Ki stood at 0.063 nM. Moreover, the Emax in experiment [3] (setting [5]) came out at 93.3%. Further, the EC50 in experiment [3] came out at 2730 nM.
Take `CC(C)(Cc1coc(C2(C)C(=O)Nc3nc(-c4nn(Cc5ccccc5F)c5ccccc45)nc(N)c32)n1)c1nn[nH]n1` (centres unmarked) [Example 248B, 4-Amino-2-[1-(2-fluorobenzyl)-1H-indazol-3-yl]-5-methyl-5-{4-[2-methyl-2-(2H-tetrazol-5-yl)propyl]oxazol-2-yl}-5,7-dihydro-6H-pyrrolo[2,3-d]pyrimidin-6-one]: the Ki in experiment [1] came out at 0.048 nM. The Emax in experiment [3] (setting [5]) worked out at 106%. The EC50 in experiment [3] is 116 nM.
For `CC1(c2cccc(-c3nn[nH]n3)c2)C(=O)Nc2nc(-c3nn(Cc4ccccc4F)c4cc(F)ccc34)nc(N)c21` (centres unmarked) [Example 249B, 4-Amino-2-[6-fluoro-1-(2-fluorobenzyl)-1H-indazol-3-yl]-5-methyl-5-[3-(1H-tetrazol-5-yl)phenyl]-5,7-dihydro-6H-pyrrolo[2,3-d]pyrimidin-6-one] the same measures were 0.068 nM, 98.5% and 2620 nM.
For `CC1(c2ccc(-c3nn[nH]n3)cc2)C(=O)Nc2nc(-c3nn(Cc4ccccc4F)c4cc(F)ccc34)nc(N)c21` (centres unmarked) [Example 250B, 4-amino-2-[6-fluoro-1-(2-fluorobenzyl)-1H-indazol-3-yl]-5-methyl-5-[4-(1H-tetrazol-5-yl)phenyl]-5,7-dihydro-6H-pyrrolo[2,3-d] pyrimidin-6-one] the same measures were 0.108 nM, 102% and 1700 nM.
Take `CC1(c2ccc(C(=O)O)cn2)C(=O)Nc2nc(-c3nn(Cc4ccccc4F)c4cc(Cl)ccc34)nc(N)c21` (centres unmarked) [Example 254A, 6-{4-Amino-2-[6-chloro-1-(2-fluorobenzyl)-1H-indazol-3-yl]-5-methyl-6-oxo-6,7-dihydro-5H-pyrrolo[2,3-d]pyrimidin-5-yl}pyridine-3-carboxylic acid]: the Ki in experiment [1] came to 0.199 nM. The Emax in experiment [3] (setting [5]) was determined as 123%. Also, the EC50 in experiment [3] amounted to 1010 nM.
For `CC1(c2cccc(C(=O)O)n2)C(=O)Nc2nc(-c3nn(Cc4ccccc4F)c4cc(Cl)ccc34)nc(N)c21` (centres unmarked) [Example 255A, 6-{4-Amino-2-[6-chloro-1-(2-fluorobenzyl)-1H-indazol-3-yl]-5-methyl-6-oxo-6,7-dihydro-5H-pyrrolo[2,3-d]pyrimidin-5-yl}picolinic acid] the same measures were 0.073 nM, 108% and 1480 nM.
For `C[C@@]1(c2ccc(CCc3noc(=O)[nH]3)cc2)C(=O)Nc2nc(-c3nn(Cc4ccccc4F)c4cc(Cl)ccc34)nc(N)c21` [Example 256B, (S)-4-Amino-2-[6-chloro-1-(2-fluorobenzyl)-1H-indazol-3-yl]-5-methyl-5-{4-[2-(5-oxo-4,5-dihydro-1,2,4-oxadiazol-3-yl)ethyl]phenyl}-5,7-dihydro-6H-pyrrolo[2,3-d]pyrimidin-6-one], in experiment [1], the inhibitory constant (Ki) worked out at 0.074 nM. In experiment [3] (setting [4]), the Emax was 104%. Moreover, the EC50 in experiment [3] was 2050 nM.
With `CC1(c2ccc(CCP(=O)(O)O)cc2)C(=O)Nc2nc(-c3nn(Cc4ccccc4F)c4cc(Cl)ccc34)nc(N)c21` (centres unmarked) [Example 257A, [2-(4-{4-Amino-2-[6-chloro-1-(2-fluorobenzyl)-1H-indazol-3-yl]-5-methyl-6-oxo-6,7-dihydro-5H-pyrrolo[2,3-d]pyrimidin-5-yl}phenyl)ethyl]phosphonic acid], in experiment [1], the Ki turned out to be 0.105 nM. Moreover, the Emax in experiment [3] (setting [5]) came to 84.7%. Also, the EC50 in experiment [3] is 106 nM.
For `C[C@@]1(c2ccc(CCC(=O)NS(C)(=O)=O)cc2)C(=O)Nc2nc(-c3nn(Cc4ccccc4F)c4cc(Cl)ccc34)nc(N)c21` [Example 259B, (S)-3-(4-{4-Amino-2-[6-chloro-1-(2-fluorobenzyl)-1H-indazol-3-yl]-5-methyl-6-oxo-6,7-dihydro-5H-pyrrolo[2,3-d]pyrimidin-5-yl}phenyl)-N-(methylsulfonyl)propanamide] the same measures were 0.111 nM, 116% and 560 nM.
For `CC1(c2ccc(OCC(=O)O)cc2)C(=O)Nc2nc(-c3nn(Cc4ccccc4F)c4cc(Cl)ccc34)nc(N)c21` (centres unmarked) [Example 260A, (4-{4-Amino-2-[6-chloro-1-(2-fluorobenzyl)-1H-indazol-3-yl]-5-methyl-6-oxo-6,7-dihydro-5H-pyrrolo[2,3-d]pyrimidin-5-yl}phenoxy)acetic acid] the same measures were 0.058 nM, 136% and 125 nM.
For `CC1(N2CCC(CCC(=O)O)CC2)C(=O)Nc2nc(-c3nn(Cc4ccccc4F)c4cc(Cl)ccc34)nc(N)c21` (centres unmarked) [Example 262B, 3-(1-{4-Amino-2-[6-chloro-1-(2-fluorobenzyl)-1H-indazol-3-yl]-5-methyl-6-oxo-6,7-dihydro-5H-pyrrolo[2,3-d]pyrimidin-5-yl}piperidin-4-yl)propanoic acid] the same measures were 0.097 nM, 82.4% and 27 nM.
